From article PMC12564265, “Navigating the Deep Eutectic Solvent Landscape: Experimental and Machine Learning Solubility Explorations of Syringic, p-Coumaric, and Caffeic Acids” (International Journal of Molecular Sciences, 2025)
Values joined by “and” are separate entries in the source; they are usually repeats but may differ in a detail not shown here. Equal entries are not always repeated.

Assays:
[1] = Shake-flask solubility with spectrophotometric measurement in neat deep eutectic solvents; assay type: physicochemical
Experimental: (§1) In order to determine the solubility of the three studied phenolic acids in deep eutectic solvents, a very well-established shake-flask method coupled with spectrophotometric measurements was utilized. The initial procedure involved the preparation of various DESs, which was conducted by mixing their HBA and HBD counterparts in a glass vessel and heating the composition until the formation of a transparent, uniform liquid. […] For additional measurements, the DESs were mixed with water in varying proportions, creating aqueous DES systems. Saturated solutions of CAF, SYR, and COU were obtained by adding excess amounts of these compounds to test tubes containing either a neat deep eutectic solvent or its aqueous solution. Such samples were placed in the Orbital Shaker Incubator ES-20/60 from Biosan (Riga, Latvia) and heated for 24 h at 25 °C, 30 °C, 35 °C, and 40 °C (±0.1 °C) with simultaneous mixing at 60 rpm. Before measurements, the samples were filtered using a PTFE syringe filter from Qpore (Dallas, TX, USA) with a 0.22 μm pore size. In order to avoid possible precipitation of the saturated solutions at decreased temperatures, the test tubes, syringes, pipette tips, and filters were kept at a temperature identical to that of the samples. The spectrophotometric measurements required the preparation of calibration curves for the three APIs. This involved the preparation of a stock solution of each compound in methanol, which was later successfully diluted, and the obtained solutions of varying concentrations were measured using an A360 spectrophotometer from AOE Instruments (Shanghai, China). The wavelength range was set to 200-500 nm, and the resolution was 1 nm. The analytical wavelengths were determined to be 324 nm for caffeic acid, 273 nm for syringic acid, and 308 nm for p-coumaric acid. The final regression equations, obtained after averaging three distinct sets of measurements, are collected in Table 2 together with determination coefficients and limits of detection (LOD) and quantification (LOQ) for the calibration curves. The measurements of the samples were conducted with the same spectrophotometer and identical settings. Methanol was used for the dilution of the samples so that they could remain within the linearity range of the method. Complete spectra of the samples were recorded, but for the solubility determination, the absorbance values at a specific analytical wavelength were considered. These values were combined with the corresponding regression equations of the calibration curves and served for the calculation of the concentration of the three phenolic acids in the studied samples. The densities of such samples were also measured, and for this task 1 mL of each sample was weighed to a precision of 0.1 mg using an AS 110 R2.PLUS analytical balance from […] (Radom, Poland). The obtained densities enabled the calculation of mole fractions of CAF, SYR, and COU dissolved in the studied DESs. For each considered system, three distinct measurements were conducted, and the results were averaged.

[2] = Shake-flask solubility with spectrophotometric measurement in aqueous DES mixtures; assay type: physicochemical; conditions: Bet – TEG 1:2 + water
Experimental: as §1

## O=C(O)C=Cc1ccc(O)c(O)c1 [caffeic acid, 3,4-dihydroxycinnamic acid]
[1]; neat DES Bet - DEG, HBA:HBD molar ratio 1:1, 25 °C
  Mole fraction solubility: 0.0497±0.0004 mole fraction
[1]; neat DES Bet - DEG, HBA:HBD molar ratio 1:2, 25 °C
  Mole fraction solubility: 0.0576±0.0005 mole fraction
[1]; neat DES Bet - DEG, HBA:HBD molar ratio 1:4, 25 °C
  Mole fraction solubility: 0.0537±0.0004 mole fraction
[1]; neat DES Bet - ETG, HBA:HBD molar ratio 1:1, 25 °C
  Mole fraction solubility: 0.0411±0.0004 mole fraction
[1]; neat DES Bet - ETG, HBA:HBD molar ratio 1:2, 25 °C
  Mole fraction solubility: 0.0458±0.0004 mole fraction
[1]; neat DES Bet - GLY, HBA:HBD molar ratio 1:1, 25 °C
  Mole fraction solubility: 0.0561±0.0004 mole fraction
[1]; neat DES Bet - GLY, HBA:HBD molar ratio 1:2, 25 °C
  Mole fraction solubility: 0.0622±0.0006 mole fraction
[1]; neat DES Bet - GLY, HBA:HBD molar ratio 1:4, 25 °C
  Mole fraction solubility: 0.0573±0.0002 mole fraction
[1]; neat DES Bet - TEG, HBA:HBD molar ratio 1:1, 25 °C
  Mole fraction solubility: 0.0655±0.0012 mole fraction
[1]; neat DES Bet - TEG, HBA:HBD molar ratio 1:2, 25 °C
  Mole fraction solubility: 0.0755±0.0010 mole fraction
[1]; neat DES Bet - TEG, HBA:HBD molar ratio 1:2, 25 °C, listed as Caffeic acid
  Mole fraction solubility: 0.0755 mole fraction
[1]; neat DES Bet - TEG, HBA:HBD molar ratio 1:4, 25 °C
  Mole fraction solubility: 0.0716±0.0007 mole fraction
[1]; neat DES ChCl - DEG, HBA:HBD molar ratio 1:1, 25 °C
  Mole fraction solubility: 0.0584±0.0003 mole fraction
[1]; neat DES ChCl - DEG, HBA:HBD molar ratio 1:2, 25 °C
  Mole fraction solubility: 0.0664±0.0005 mole fraction
[1]; neat DES ChCl - ETG, HBA:HBD molar ratio 1:1, 25 °C
  Mole fraction solubility: 0.0435±0.0004 mole fraction
[1]; neat DES ChCl - ETG, HBA:HBD molar ratio 1:2, 25 °C
  Mole fraction solubility: 0.0494±0.0003 mole fraction
[1]; neat DES ChCl - ETG, HBA:HBD molar ratio 1:4, 25 °C
  Mole fraction solubility: 0.0471±0.0003 mole fraction
[1]; neat DES ChCl - TEG, HBA:HBD molar ratio 1:2, 25 °C
  Mole fraction solubility: 0.0835 mole fraction
[2]; x*DES 0.1, 25°C
  Mole fraction solubility: 0.0077±0.0001 mole fraction
[2]; x*DES 0.1, 30°C
  Mole fraction solubility: 0.0087±0.0001 mole fraction
[2]; x*DES 0.1, 35°C
  Mole fraction solubility: 0.0101±0.0001 mole fraction
[2]; x*DES 0.1, 40°C
  Mole fraction solubility: 0.0121±0.0001 mole fraction
[2]; x*DES 0.2, 25°C
  Mole fraction solubility: 0.0155±0.0001 mole fraction
[2]; x*DES 0.2, 30°C
  Mole fraction solubility: 0.0195±0.0002 mole fraction
[2]; x*DES 0.2, 35°C
  Mole fraction solubility: 0.0203±0.0002 mole fraction
[2]; x*DES 0.2, 40°C
  Mole fraction solubility: 0.0243±0.0003 mole fraction
[2]; x*DES 0.3, 25°C
  Mole fraction solubility: 0.0243±0.0002 mole fraction
[2]; x*DES 0.3, 30°C
  Mole fraction solubility: 0.0271±0.0002 mole fraction
[2]; x*DES 0.3, 35°C
  Mole fraction solubility: 0.0318±0.0002 mole fraction
[2]; x*DES 0.3, 40°C
  Mole fraction solubility: 0.0377±0.0003 mole fraction
[2]; x*DES 0.4, 25°C
  Mole fraction solubility: 0.0343±0.0002 mole fraction
[2]; x*DES 0.4, 30°C
  Mole fraction solubility: 0.0379±0.0001 mole fraction
[2]; x*DES 0.4, 35°C
  Mole fraction solubility: 0.0450±0.0002 mole fraction
[2]; x*DES 0.4, 40°C
  Mole fraction solubility: 0.0538±0.0003 mole fraction
[2]; x*DES 0.5, 25°C
  Mole fraction solubility: 0.0432±0.0002 mole fraction
[2]; x*DES 0.5, 30°C
  Mole fraction solubility: 0.0476±0.0003 mole fraction
[2]; x*DES 0.5, 35°C
  Mole fraction solubility: 0.0565±0.0003 mole fraction
[2]; x*DES 0.5, 40°C
  Mole fraction solubility: 0.0690±0.0009 mole fraction
[2]; x*DES 0.6, 25°C
  Mole fraction solubility: 0.0543±0.0003 mole fraction
[2]; x*DES 0.6, 30°C
  Mole fraction solubility: 0.0601±0.0005 mole fraction
[2]; x*DES 0.6, 35°C
  Mole fraction solubility: 0.0703±0.0005 mole fraction
[2]; x*DES 0.6, 40°C
  Mole fraction solubility: 0.0870±0.0009 mole fraction
[2]; x*DES 0.7, 25°C
  Mole fraction solubility: 0.0659±0.0007 mole fraction
[2]; x*DES 0.7, 30°C
  Mole fraction solubility: 0.0737±0.0006 mole fraction
[2]; x*DES 0.7, 35°C
  Mole fraction solubility: 0.0862±0.0007 mole fraction
[2]; x*DES 0.7, 40°C
  Mole fraction solubility: 0.1046±0.0008 mole fraction
[2]; x*DES 0.8, 25°C
  Mole fraction solubility: 0.0797±0.0006 mole fraction
[2]; x*DES 0.8, 30°C
  Mole fraction solubility: 0.0901±0.0008 mole fraction
[2]; x*DES 0.8, 35°C
  Mole fraction solubility: 0.1042±0.0013 mole fraction
[2]; x*DES 0.8, 40°C
  Mole fraction solubility: 0.1253±0.0010 mole fraction
[2]; x*DES 0.9, 25°C
  Mole fraction solubility: 0.0823 mole fraction and 0.0823±0.0013 mole fraction
